Measurements as given in patent publication US20260027083A1, “USE OF PPAR AGONIST FOR IMPROVEMENT OF ENERGY METABOLISM” (NOVMETAPHARMA CO., LTD., priority 2022, published 2026).

Key:
PPARα = target: T1, PPARα (Homo sapiens, UniProt Q07869); test: Gal4 trans-activated luciferase reporter assay, PPARα-LBD, HEK293; assay type: cell-based; conditions: HEK293, drug treatment 24 hours, FIG. 1
T1 construct: three types of pcDNA5-GAL4 and pGALRE-luc containing PPARα-LBD, PPARβ/δ-LBD, or PPARγ-LBD; GAL4 (fusion partner from vector pcDNA5-GAL4); expressed in transfected cells; host or cells: HEK293
T1 sequence (Q07869 239-466 limits assumed): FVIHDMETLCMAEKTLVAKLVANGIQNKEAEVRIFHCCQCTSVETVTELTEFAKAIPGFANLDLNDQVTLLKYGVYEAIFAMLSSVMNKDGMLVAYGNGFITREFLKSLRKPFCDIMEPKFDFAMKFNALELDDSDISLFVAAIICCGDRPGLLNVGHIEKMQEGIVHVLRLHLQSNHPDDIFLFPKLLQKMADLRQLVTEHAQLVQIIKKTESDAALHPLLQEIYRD
Protocol: A plasmid was transformed into E. coli (DE3, Rosetta) and transfected into HEK293 cells and used. Referring to known literatures such as Kanno, Y. & Inouye, Y. J Toxicol Sci 35, 515-525 (2010), Zhao, S. et al. J Nat Prod 79, 879-885 (2016), etc., luciferase assay was performed on three types of pcDNA5-GAL4 and pGALRE-luc containing PPARα-LBD, PPARβ/δ-LBD, or PPARγ-LBD. pProEX-PPAR and pET-28a were used for purification of His-tagged recombinant hPPAR-LBD protein.
A HEK293 cell line was cultured in Dulbecco's Modified Eagle Medium (DMEM) containing 10% Fetal Bovine Serum (FBS) and 1% penicillin-streptomycin (P/S). […]
Transfected HEK293 cells were treated with a drug and after 24 hours, the cells were collected, resuspended in a luciferase lysis buffer (Promega, Madison, Wisconsin, USA), and incubated on ice for 10 minutes. […] Next, Firefly Luciferase (Fluc) and Renilla Luciferase (Rluc) activities were measured using the Dual Luciferase Reporter Assay System (Promega, Madison, Wisconsin, USA). […]
To confirm whether a compound represented by Chemical Formula 1 was a PPAR agonist, Gal4 trans-activated luciferase assay was performed. Specifically, HEK293 cells were transfected with the Gal4-luciferase reporter systems of PPARα, PPARβ/δ, and PPARγ, respectively, harvested after drug treatment for 24 hours, and then analyzed by Dual-Luciferase assay. […]

high-fat diet mice [1] = test: High-fat diet mice: body weight and food intake; assay type: in vivo, C57BL/6J mice; conditions: 5 mg/kg/day oral, 13 weeks, 60% HFD, vs HFD-V, FIG. 6
Protocol: (§1) The care and use of experimental animals were carried out with the approval of the Institutional Animal Care and Use Committee of Pohang University of Science and Technology. C57BL/6J mice were purchased from Japan SLC, Inc. 50 four-week-old male C57/BL/6J mice were acclimated for 2 weeks. The mice were randomly divided and orally administered with vehicle or 5 mg/kg/day of D6 or WY14643 for 13 weeks (oral gavage), and obesity was induced by a 60% high-fat diet (#D12492, Research diets, NJ, USA). Body weights and food intakes were measured weekly from 6 weeks of age, and after 16 weeks of age, adipose tissue and muscle volumes were measured using a Trimodality imaging system.
To confirm a metabolic disease inhibitory effect of the compound represented by Chemical Formula 1 through animal experiments, mice were acclimated for 2 weeks, and then obesity was induced by feeding a 60% high fat diet (HFD) and orally administered with vehicle or 5 mg/kg/day of the compound represented by Chemical Formula 1 (D6) or WY14643 for 13 weeks. Experiments such as IP-GTT, IP-ITT, and micro-CT were performed at the week 10 of drug administration (FIG. 5).

high-fat diet mice [2] = test: Histology of liver tissues of high-fat diet mice (H&E, Sirius Red, Oil Red O, NAFLD activity score); assay type: in vivo, C57BL/6J mice; conditions: 5 mg/kg/day oral, 13 weeks HFD
Protocol: (§2) After the differentiation of 3T3-L1 in the 12-well plate was completed, the cells were fixed with 4% paraformaldehyde and stained with an Oil Red O solution, and then the stained samples were photographed under a microscope (Nikon Eclipse Ti-s). An Oil Red O dye of the samples was dissolved in isopropanol, detected by a spectrophotometer at 492 nm, and the lipid droplet size distribution was measured using ImageJ. OCT-embedded liver samples were stained according to the Roy Ellis protocol.
as §1
Mouse tissues were fixed with 10% formalin solution (Sigma-Aldrich, St. Louis, MO, USA), and paraffin-embedded tissues were segmented and stained with hematoxylin and eosin (H&E) staining and Sirius Red staining (IHC world, Woodstock, USA).
Fibrosis and vesicular fat in liver tissue were observed using Sirius Red and Oil Red O staining methods. The NAFLD activation score was evaluated by referring to Kleiner, D. E. et al. Hepatology 41, 1313-1321, doi: 10.1002/hep.20701 (2005), etc., according to the NASH Clinical Research Network Scoring System.
To evaluate the effects on fatty liver-related symptoms after administration of the compound represented by Chemical Formula […], Sirius Red, and Oil Red O staining were performed on liver tissues of mice fed with a high-fat diet for 13 weeks.

3T3-L1 adipocytes = test: 3T3-L1 adipocyte differentiation, Oil Red O staining; assay type: cell-based, mouse; conditions: treated together with rosiglitazone, each 25 μM
Protocol: A mouse preadipocyte 3T3-L1 cell line was cultured in DMEM containing 10% […] (CS) and 1% P/S. For differentiation of 3T3-L1, 10% FBS and 1% P/S were used. The cells were cultured in a 37° C. incubator humidified with 5% CO2 atmosphere.
3T3-L1 cells were seeded in a 12-well plate at a density of 5×10^4 cells/well. […] On day 2 of MDI addition, the medium was replaced with 1 μg/ml insulin.
After 2 days, the medium was replaced with DMEM containing 10% FBS and 1% P/S, and treated with a drug. The medium was replaced with fresh DMEM containing 10% FBS and 1% P/S, and treated with the drug three times every 2 days. Finally, the medium was replaced with DMEM containing only the drug in a serum-free state (serum starvation). After 2 days, differentiation of 3T3-L1 was completed.
as §2, with “protocol. […]” for “protocol.”

SMILES: COc1ccc(-c2cc(=O)oc3c(C)c(OC(=O)[C@H](Cc4c[nH]c5ccccc45)NC(=O)OC(C)(C)C)ccc23)cc1 [Chemical Formula 1, [4-(4-methoxyphenyl)-8-methyl-2-oxochromen-7-yl] (2S)-3-(1H-indol-3-yl)-2-[(2-methylpropan-2-yl)oxycarbonylamino]propanoate]
- relative luciferase activity (Fluc to Rluc) for PPARα (PPARα): dose-dependently increased
- food intake (high-fat diet mice [1]): no significant change
- rate of weight gain (high-fat diet mice [1]): significantly reduced
- level of lipid droplet accumulation in the liver (Oil Red O) (high-fat diet mice [2]; FIG. 18): reduced
- NAFLD activity score (H&E images of liver tissue) (high-fat diet mice [2]; compared with WY14643 5 mg/kg/day, FIG. 17): better effect of improving the NAFLD disease index than the high-fat diet mice (HFD-WY) administered with WY14643
- histological findings of fatty liver-related diseases in liver tissue (high-fat diet mice [2]; vs HFD-V, FIG. 16): reduced
- lipid droplet size distribution in adipocytes (3T3-L1 adipocytes; FIG. 4 right): effectively reduced
- lipid accumulation in adipocytes increased by rosiglitazone (Oil Red O) (3T3-L1 adipocytes; FIGS. 3 and 4 left): reduced
